Experimental data reported in patent US11312713B2, “Imidazo[4,5-C]quinoline derivatives as LRRK2 inhibitors” (Pfizer Inc., priority 2017, dated 2022).
Like-named read-outs stand apart in the source and are kept apart here.

Key:
[1] = biological target: LRRK2, WT (GST-tagged truncated LRRK2) (Homo sapiens, UniProt Q5S007); assay: LRRK2 kinase assay (LanthaScreen), wild type; format: biochemical
Method: (§1) LRRK2 kinase activity was measured using Lantha Screen technology from Invitrogen. GST-tagged truncated LRRK2 from Invitrogen (Cat #PV4874) was incubated with a fluorescein-labeled peptide substrate based upon ezrin/radixin/moesin (ERM), also known as LRRKtide (Invitrogen cat #PR8976A), in the presence of a dose response of compound. Upon completion, the assay was stopped and detected with a terbium labeled anti-phospho-ERM antibody (Invitrogen, cat #PR8975A). […] Using Echo acoustic dispensing, 60 nL of compound was transferred to a low volume Corning 384-well assay plate. 3 μL of a working solution of substrate (200 nM LRRKtide, 2 mM ATP) prepared in assay buffer (50 mM HEPES, pH 7.5, 3 mM MgCl2, with 2 mM DTT and 0.01% Brij35 added fresh) was added to the 60 nL compound assay plate. The kinase reaction was started with 3 μL of a working solution of LRRK2 enzyme at a concentration of 4 μg/m L. The final reaction concentrations were 100 nM LRRKtide, 1 mM ATP, 2 μg/mL LRRK2 enzyme and a compound dose response with a top dose of 3 μM. The reaction was allowed to progress at room temperature for 30 minutes and then stopped with the addition of 6 μL of detection buffer (20 mM Tris pH 7.6, 0.01% NP-40, 6 mM EDTA with 2 nM terbium labeled antiphospho-ERM). […] All final concentrations of substrate ATP and enzyme were the same.

mutant G2019S LRRK2 = mutant G2019S LRRK2 (Homo sapiens (Human), UniProt Q5S007, G2019S); assay: LRRK2 kinase assay (LanthaScreen), G2019S mutant; format: biochemical; details: G2019S mutant LRRK2, read-out: LRRK2, G2019S IC50
Method: as §1

[2] = wild type LRRK2, LanthaScreen, LRRKtide substrate
[3] = LanthaScreen, LRRKtide substrate

mutant G2019S LRRK2, sequence (Q5S007 whole entry G2019S): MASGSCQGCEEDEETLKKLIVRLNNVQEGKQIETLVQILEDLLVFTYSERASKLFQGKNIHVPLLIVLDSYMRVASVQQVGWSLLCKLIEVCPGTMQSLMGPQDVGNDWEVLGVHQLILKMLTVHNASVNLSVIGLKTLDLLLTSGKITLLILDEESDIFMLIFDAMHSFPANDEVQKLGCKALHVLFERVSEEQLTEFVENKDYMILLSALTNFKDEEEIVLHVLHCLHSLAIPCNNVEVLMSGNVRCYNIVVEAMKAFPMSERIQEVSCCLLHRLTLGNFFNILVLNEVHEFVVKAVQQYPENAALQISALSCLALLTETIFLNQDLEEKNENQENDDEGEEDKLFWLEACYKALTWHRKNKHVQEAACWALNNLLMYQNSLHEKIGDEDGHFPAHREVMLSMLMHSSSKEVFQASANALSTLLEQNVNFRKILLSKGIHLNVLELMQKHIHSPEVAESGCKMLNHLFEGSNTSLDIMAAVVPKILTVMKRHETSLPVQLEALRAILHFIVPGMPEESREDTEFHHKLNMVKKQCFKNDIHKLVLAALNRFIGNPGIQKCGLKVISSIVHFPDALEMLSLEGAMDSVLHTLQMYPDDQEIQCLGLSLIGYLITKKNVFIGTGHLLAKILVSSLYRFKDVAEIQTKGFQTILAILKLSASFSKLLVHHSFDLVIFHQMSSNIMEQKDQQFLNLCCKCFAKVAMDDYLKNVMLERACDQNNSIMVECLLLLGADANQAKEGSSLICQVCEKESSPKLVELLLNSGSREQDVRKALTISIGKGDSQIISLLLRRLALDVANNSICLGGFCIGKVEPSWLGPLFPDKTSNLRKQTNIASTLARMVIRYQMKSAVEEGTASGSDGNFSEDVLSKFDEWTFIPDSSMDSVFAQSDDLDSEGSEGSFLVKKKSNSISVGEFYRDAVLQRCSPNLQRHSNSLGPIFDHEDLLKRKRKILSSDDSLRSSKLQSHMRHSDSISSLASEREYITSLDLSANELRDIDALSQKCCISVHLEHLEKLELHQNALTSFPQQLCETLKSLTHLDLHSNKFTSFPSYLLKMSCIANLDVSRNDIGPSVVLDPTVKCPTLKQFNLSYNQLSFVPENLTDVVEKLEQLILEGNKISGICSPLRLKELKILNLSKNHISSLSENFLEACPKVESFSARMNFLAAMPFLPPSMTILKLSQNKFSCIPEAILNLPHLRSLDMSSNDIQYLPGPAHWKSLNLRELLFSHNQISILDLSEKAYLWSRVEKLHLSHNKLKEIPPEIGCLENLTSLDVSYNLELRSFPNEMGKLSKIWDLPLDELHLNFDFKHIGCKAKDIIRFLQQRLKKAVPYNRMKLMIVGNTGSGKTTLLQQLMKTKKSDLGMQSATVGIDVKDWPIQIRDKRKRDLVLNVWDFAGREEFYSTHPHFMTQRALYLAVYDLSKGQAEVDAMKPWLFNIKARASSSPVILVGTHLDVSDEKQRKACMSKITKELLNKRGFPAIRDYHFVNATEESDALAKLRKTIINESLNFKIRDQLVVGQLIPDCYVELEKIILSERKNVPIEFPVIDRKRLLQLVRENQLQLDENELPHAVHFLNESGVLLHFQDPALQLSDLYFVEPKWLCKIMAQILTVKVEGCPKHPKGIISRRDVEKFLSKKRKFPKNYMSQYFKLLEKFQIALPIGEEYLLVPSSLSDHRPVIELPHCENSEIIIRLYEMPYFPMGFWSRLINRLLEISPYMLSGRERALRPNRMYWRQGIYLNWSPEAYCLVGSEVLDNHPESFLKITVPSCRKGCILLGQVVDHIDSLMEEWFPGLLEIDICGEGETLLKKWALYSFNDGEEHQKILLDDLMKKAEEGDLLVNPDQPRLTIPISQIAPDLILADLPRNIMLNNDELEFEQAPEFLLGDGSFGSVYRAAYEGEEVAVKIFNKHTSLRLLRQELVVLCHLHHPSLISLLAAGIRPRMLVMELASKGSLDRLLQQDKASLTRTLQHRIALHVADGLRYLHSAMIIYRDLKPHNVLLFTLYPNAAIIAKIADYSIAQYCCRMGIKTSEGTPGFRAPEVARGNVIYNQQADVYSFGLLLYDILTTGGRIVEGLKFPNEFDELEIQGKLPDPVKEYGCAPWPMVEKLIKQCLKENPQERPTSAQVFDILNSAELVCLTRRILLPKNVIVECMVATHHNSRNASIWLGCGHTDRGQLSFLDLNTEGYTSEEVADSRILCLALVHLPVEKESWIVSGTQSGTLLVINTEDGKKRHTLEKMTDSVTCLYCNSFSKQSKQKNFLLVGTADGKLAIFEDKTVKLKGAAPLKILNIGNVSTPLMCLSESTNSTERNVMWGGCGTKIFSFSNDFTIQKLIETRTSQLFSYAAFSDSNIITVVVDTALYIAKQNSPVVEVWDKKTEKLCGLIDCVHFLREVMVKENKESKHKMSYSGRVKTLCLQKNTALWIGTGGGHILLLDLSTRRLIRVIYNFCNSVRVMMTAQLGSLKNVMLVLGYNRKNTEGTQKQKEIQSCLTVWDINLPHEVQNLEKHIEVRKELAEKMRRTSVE

| Structure (SMILES) | IC50 [1, 2] | IC50 (mutant G2019S LRRK2; [3]) | IC50 ([1]; wild type LRRK2, data obtained using the formate salt of the Example) | IC50 (mutant G2019S LRRK2; data obtained using the formate salt of the Example) | IC50 ([1]; LanthaScreen, LRRKtide substrate, 1 mM ATP) |
| --- | --- | --- | --- | --- | --- |
| C[C@@H]1C[C@H](n2c(Cc3nccs3)nc3cnc4ccc(F)cc4c32)CCO1 [Example 64, 8-fluoro-1-[(2R,4R)-2-methyltetrahydro-2H-pyran-4-yl]-2-(1,3-thiazol-2-ylmethyl)-1H-imidazo[4,5-c]quinoline] | 9.8 nM | 6.87 nM | – | – | – |
| C[C@@H]1C[C@H](n2c(C3CCCC3)nc3cnc4ccc(C#N)cc4c32)CCO1 [Example 30, 2-cyclopentyl-1-[(2R,4R)-2-methyltetrahydro-2H-pyran-4-yl]-1H-imidazo[4,5-c]quinoline-8-carbonitrile] | 20.6 nM | 22 nM | – | – | – |
| Cc1nnc(Cc2nc3cnc4ccc(C(F)(F)F)cc4c3n2[C@@H]2CCO[C@H](C)C2)s1 [Example 74, 1-[(2R,4R)-2-methyltetrahydro-2H-pyran-4-yl]-2-[(5-methyl-1,3,4-thiadiazol-2-yl)methyl]-8-(trifluoromethyl)-1H-imidazo[4,5-c]quinoline] | 26.1 nM | 13.5 nM | – | – | – |
| Cc1cnc(Cc2nc3cnc4ccc(Cl)cc4c3n2[C@@H]2CC[C@H](F)C2)cn1 (relative stereo) [Example 77, 8-chloro-1-[cis-3-fluorocyclopentyl]-2-[(5-methylpyrazin-2-yl)methyl]-1H-imidazo[4,5-c]quinoline] | 13 nM | 11.8 nM | – | – | – |
| C[C@@H]1C[C@H](n2c(Cc3cnc(C(F)(F)F)cn3)nc3cnc4ccc(F)cc4c32)CCO1 [Example 73, 8-fluoro-1-[(2R,4R)-2-methyltetrahydro-2H-pyran-4-yl]-2-{[5-(trifluoromethyl)pyrazin-2-yl]methyl}-1H-imidazo[4,5-c]quinoline] | 16.9 nM | 13 nM | – | – | – |
| COc1cnn(Cc2nc3cnc4ccc(C#N)cc4c3n2[C@@H]2CCO[C@H](C)C2)c1 [Example 57, 2-[(4-methoxy-1H-pyrazol-1-yl)methyl]-1-[(2R,4R)-2-methyltetrahydro-2H-pyran-4-yl]-1H-imidazo[4,5-c]quinoline-8-carbonitrile] | 7.43 nM | 5.4 nM | – | – | – |
| Cc1cc(Cc2nc3cnc4ccc(Cl)cc4c3n2C2CCOC(C(F)F)C2)no1 (stereo not drawn) [Example 59, 8-chloro-1-[cis-2-(difluoromethyl)tetrahydro-2H-pyran-4-yl]-2-[(5-methyl-1,2-oxazol-3-yl)methyl]-1H-imidazo[4,5-c]quinoline] | 6.6 nM | 8.16 nM | – | – | – |
| Cc1cc(Cc2nc3cnc4ccc(C#N)cc4c3n2[C@@H]2CC[C@H](F)C2)no1 (racemic) [Example 68, 1-[cis-3-fluorocyclopentyl]-2-[(5-methyl-1,2-oxazol-3-yl)methyl]-1H-imidazo[4,5-c]quinoline-8-carbonitrile] | – | – | 8.32 nM | 12.3 nM | – |
| Cc1cnc(C(O)c2nc3cnc4ccc(Cl)cc4c3n2[C@@H]2CCO[C@H](C)C2)cn1 (single isomer, unassigned) [Example 15] | 16.3 nM | 18.4 nM | – | – | – |
| Cc1nc(Cc2nc3cnc4ccc(C#N)cc4c3n2C2CN(C)CC2(F)F)no1 (stereo not shown) [Example 32, 1-(4,4-difluoro-1-methylpyrrolidin-3-yl)-2-[(5-methyl-1,2,4-oxadiazol-3-yl)methyl]-1H-imidazo[4,5-c]quinoline-8-carbonitrile] | 4.59 nM | 5.98 nM | – | – | – |
| N#Cc1ccc2ncc3nc(Cc4nc5ccccc5o4)n([C@@H]4CC[C@H](F)C4)c3c2c1 (relative stereo) [Example 65, 2-(1,3-benzoxazol-2-ylmethyl)-1-[cis-3-fluorocyclopentyl]-1H-imidazo[4,5-c]quinoline-8-carbonitrile] | 8.56 nM | 6.33 nM | – | – | – |
| C[C@@H]1C[C@H](n2c(Cc3cnc(C(F)(F)F)cn3)nc3cnc4ccc(C#N)cc4c32)CCO1 [Example 39, 1-[(2R,4R)-2-methyltetrahydro-2H-pyran-4-yl]-2-{[5-(trifluoromethyl)pyrazin-2-yl]methyl}-1H-imidazo[4,5-c]quinoline-8-carbonitrile] | 17.4 nM | 9.3 nM | – | – | – |
| C[C@@H]1C[C@H](n2c(CCC#N)nc3cnc4ccc(Cl)cc4c32)CCO1 [Example 80, 3-{8-chloro-1-[(2R,4R)-2-methyltetrahydro-2H-pyran-4-yl]-1H-imidazo[4,5-c]quinolin-2-yl}propanenitrile] | 9.4 nM | 11.3 nM | – | – | – |
| C[C@@H]1C[C@H](n2c(Cc3cscn3)nc3cnc4ccc(C(F)(F)F)cc4c32)CCO1 [Example 69, 1-[(2R,4R)-2-methyltetrahydro-2H-pyran-4-yl]-2-(1,3-thiazol-4-ylmethyl)-8-(trifluoromethyl)-1H-imidazo[4,5-c]quinoline] | 7.39 nM | 3.33 nM | – | – | – |
| C[C@@H]1C[C@H](n2c(Cc3nccs3)nc3cnc4ccc(Cl)cc4c32)CCO1 [Example 58, 8-chloro-1-[(2R,4R)-2-methyltetrahydro-2H-pyran-4-yl]-2-(1,3-thiazol-2-ylmethyl)-1H-imidazo[4,5-c]quinoline] | 5.35 nM | 3 nM | – | – | – |

Second part, the compound after the results:

| IC50 [1, 2] | IC50 (mutant G2019S LRRK2; [3]) | IC50 ([1]; wild type LRRK2, data obtained using the formate salt of the Example) | IC50 (mutant G2019S LRRK2; data obtained using the formate salt of the Example) | IC50 ([1]; LanthaScreen, LRRKtide substrate, 1 mM ATP) | Structure (SMILES) |
| --- | --- | --- | --- | --- | --- |
| 7.51 nM | 7.49 nM | – | – | – | COCc1cn(Cc2nc3cnc4ccc(F)cc4c3n2C2CN(C)CC2(F)F)nn1 (stereo not shown) [Example 53, 1-(4,4-difluoro-1-methylpyrrolidin-3-yl)-8-fluoro-2-{[4-(methoxymethyl)-1H-1,2,3-triazol-1-yl]methyl}-1H-imidazo[4,5-c]quinoline] |
| 7.04 nM | 4.51 nM | – | – | – | Cc1cnn(Cc2nc3cnc4ccc(Cl)cc4c3n2C2CN(C)CC2(F)F)n1 (stereo not shown) [Example 87, 8-chloro-1-(4,4-difluoro-1-methylpyrrolidin-3-yl)-2-[(4-methyl-2H-1,2,3-triazol-2-yl)methyl]-1H-imidazo[4,5-c]quinoline] |
| 13.7 nM | 11.9 nM | – | – | – | CC1(C)CC(n2c(Cn3cncn3)nc3cnc4ccc(Cl)cc4c32)CCO1 (stereo not shown) [Example 71, 8-chloro-1-(2,2-dimethyltetrahydro-2H-pyran-4-yl)-2-(1H-1,2,4-triazol-1-ylmethyl)-1H-imidazo[4,5-c]quinoline] |
| 5.78 nM | 6.5 nM | – | – | – | Cc1cn(Cc2nc3cnc4ccc(Cl)cc4c3n2[C@@H]2CCN(C)C2)nn1 [Example 62, 8-chloro-1-[(3R)-1-methylpyrrolidin-3-yl]-2-[(4-methyl-1H-1,2,3-triazol-1-yl)methyl]-1H-imidazo[4,5-c]quinoline] |
| 4.48 nM | 1.34 nM | – | – | – | Cc1nnn(Cc2nc3cnc4ccc(Cl)cc4c3n2C2CN(C)CC2(F)F)n1 (stereo not shown) [Example 49, 8-chloro-1-(4,4-difluoro-1-methylpyrrolidin-3-yl)-2-[(5-methyl-2H-tetrazol-2-yl)methyl]-1H-imidazo[4,5-c]quinoline] |
| 8.03 nM | 8.55 nM | – | – | – | Cc1cnc(Cc2nc3cnc4ccc(Cl)cc4c3n2[C@@H]2CCN(C)C2)cn1 [Example 67, 8-chloro-2-[(5-methylpyrazin-2-yl)methyl]-1-[(3R)-1-methylpyrrolidin-3-yl]-1H-imidazo[4,5-c]quinoline] |
| 11.9 nM | 8.7 nM | – | – | 11 nM | FC1(F)COCCC1n1c(Cn2cncn2)nc2cnc3ccc(Cl)cc3c21 (stereo not shown) [Example 93, 8-chloro-1-(3,3-difluorotetrahydro-2H-pyran-4-yl)-2-(1H-1,2,4-triazol-1-ylmethyl)-1H-imidazo[4,5-c]quinoline] |
| 6.66 nM | 4.4 nM | – | – | – | CN1CC(n2c(Cn3cnnn3)nc3cnc4ccc(Cl)cc4c32)C(F)(F)C1 (stereo not shown) [Example 86, 8-chloro-1-(4,4-difluoro-1-methylpyrrolidin-3-yl)-2-(1H-tetrazol-1-ylmethyl)-1H-imidazo[4,5-c]quinoline] |
| 9.31 nM | 7.66 nM | – | – | – | Cc1cn(Cc2nc3cnc4ccc(Cl)cc4c3n2C2CCOCC2(F)F)nn1 (stereo not shown) [Example 46, 8-chloro-1-(3,3-difluorotetrahydro-2H-pyran-4-yl)-2-[(4-methyl-1H-1,2,3-triazol-1-yl)methyl]-1H-imidazo[4,5-c]quinoline] |
| 11.3 nM | 6.49 nM | – | – | – | COCc1cn(Cc2nc3cnc4ccc(Cl)cc4c3n2C2CCOCC2(F)F)nn1 (stereo not shown) [Example 55, 8-chloro-1-(3,3-difluorotetrahydro-2H-pyran-4-yl)-2-{[4-(methoxymethyl)-1H-1,2,3-triazol-1-yl]methyl}-1H-imidazo[4,5-c]quinoline] |
| 8.13 nM | 5.82 nM | – | – | – | Cc1nc(Cc2nc3cnc4ccc(Cl)cc4c3n2C2CN(C)CC2(F)F)no1 (stereo not shown) [Example 45, 8-chloro-1-(4,4-difluoro-1-methylpyrrolidin-3-yl)-2-[(5-methyl-1,2,4-oxadiazol-3-yl)methyl]-1H-imidazo[4,5-c]quinoline] |
| 14.7 nM | 7.32 nM | – | – | – | Cc1cn(Cc2nc3cnc4ccc(C(F)F)cc4c3n2[C@@H]2CCO[C@H](C)C2)nn1 [Example 90, 8-(difluoromethyl)-1-[(2R,4R)-2-methyltetrahydro-2H-pyran-4-yl]-2-[(4-methyl-1H-1,2,3-triazol-1-yl)methyl]-1H-imidazo[4,5-c]quinoline] |
